Tested on: idiopathic/treatment-resistant chronic cough patients
Assay: double-blind randomized placebo-controlled crossover trial in idiopathic/treatment-resistant chronic cough
Assay type: in vivo, human
Conditions: 2 weeks
Procedure: Thus, the inventors explored the role of P2X3 receptors in the sensitization of vagal pathways mediating the cough reflex leading to chronic cough (CC). A study was performed to investigate the efficacy of oral administration of Compound 16 in reducing daytime cough in idiopathic/treatment-resistant chronic cough.
In this study, a double-blind randomized placebo-controlled crossover trial, 24 subjects (19 women, mean age 55 yrs) were randomized into a double blind, placebo-controlled, 2-period, crossover study, of Compound 16, 600 mg bd. Cough was assessed using an ambulatory sound monitoring system at baseline and after 2 weeks of treatment; primary endpoint, daytime objective cough frequency (coughs/hr) (VitaloJAK™); secondary endpoints, cough severity and urge to cough (UTC) visual analogue scales (VAS), global ratings of change and cough quality of life questionnaire (CQLQ).

## COc1cc(C(C)C)c(Oc2cnc(N)nc2N)cc1S(N)(=O)=O [Compound 16, 5-(2,4-Diamino-pyrimidin-5-yloxy)-4-isopropyl-2-methoxy-benzenesulfonamide]
600 mg bd oral, (−2 to −17), p=0.018
  CQLQ (cough quality of life questionnaire), mean difference vs. placebo: −9
600 mg bd oral, (−2 to −41), p=0.035
  UTC (urge to cough) VAS, mean difference vs. placebo: −21 mm
600 mg bd oral, (−10 to −42), p=0.003
  cough severity VAS, mean difference vs. placebo: −26 mm
600 mg bd oral, compared to 2/22 treated with placebo
  patients who rated an improved cough (global rating of change): 13/24
Compound 16 600 mg bd oral, 24 subjects, 95% CI −50 to −88, p<0.001
  daytime coughs/hr (daytime objective cough frequency), mean difference vs. placebo: −75%

Reference: patent publication US10206922B2, “Substituted pyrimidines for treatment of chronic cough, neuronal hypersensitivity underlying chronic cough, neuronal hypersensitivity underlying sub-acute cough and neuronal hypersensitivity underlying acute cough” (Afferent Pharmaceuticals. Inc., priority 2013, dated 2019)
